Legend:
Format in all cases: biochemical
[1] = target: T1, MERTK (Homo sapiens, UniProt Q12866); assay: MERTK enzymatic assay (Kinase Glo); conditions: purified kinase, ATP 12 μM, read-out: MER Enzymatic Inhibition (%)
T1 sequence (Q12866 21-999): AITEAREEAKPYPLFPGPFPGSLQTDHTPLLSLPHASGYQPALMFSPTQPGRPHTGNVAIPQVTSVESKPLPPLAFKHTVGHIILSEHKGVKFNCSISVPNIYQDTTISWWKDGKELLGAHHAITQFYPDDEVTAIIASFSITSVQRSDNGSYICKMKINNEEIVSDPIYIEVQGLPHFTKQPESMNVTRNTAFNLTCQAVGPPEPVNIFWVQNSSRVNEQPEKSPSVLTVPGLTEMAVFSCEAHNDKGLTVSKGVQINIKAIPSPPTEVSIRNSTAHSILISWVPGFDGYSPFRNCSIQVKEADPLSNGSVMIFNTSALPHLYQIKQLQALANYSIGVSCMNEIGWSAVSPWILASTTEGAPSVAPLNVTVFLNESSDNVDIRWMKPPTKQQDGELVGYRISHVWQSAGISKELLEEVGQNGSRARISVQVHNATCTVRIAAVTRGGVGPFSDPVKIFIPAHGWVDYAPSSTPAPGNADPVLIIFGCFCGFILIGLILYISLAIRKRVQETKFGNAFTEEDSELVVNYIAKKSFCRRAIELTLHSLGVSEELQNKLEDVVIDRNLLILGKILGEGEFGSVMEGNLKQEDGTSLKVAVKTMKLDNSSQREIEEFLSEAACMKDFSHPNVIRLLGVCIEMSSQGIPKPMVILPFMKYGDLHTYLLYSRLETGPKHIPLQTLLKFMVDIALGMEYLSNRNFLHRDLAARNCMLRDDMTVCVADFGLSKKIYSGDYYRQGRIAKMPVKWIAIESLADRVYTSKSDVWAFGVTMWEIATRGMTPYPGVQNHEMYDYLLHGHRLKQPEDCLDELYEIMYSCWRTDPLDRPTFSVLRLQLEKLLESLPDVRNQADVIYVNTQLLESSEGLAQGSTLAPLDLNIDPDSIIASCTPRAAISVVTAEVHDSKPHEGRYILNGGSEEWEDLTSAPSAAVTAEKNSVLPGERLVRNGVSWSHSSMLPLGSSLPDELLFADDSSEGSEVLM
Description: (§1) A purified kinase (AXL or MERTK) was incubated with a compound or DMSO (control) for 15 minutes in an assay buffer (25 mM Tri s pH 7.4, 10 mM MgCl2, 4 mM MnCl2, 2 mM DTT, 0.0100 BSA, 0.02% TritonX-100, 0.0100 Brij35 and 0.5 mM Na3VO4 for MERTK; and 40 mM Tri s pH 7.4, 20 mM MgCl2, 2 mM DTT, 0.01% BSA and 0.5 mM Na3VO4 for AXL). […] The mixture was incubated for 3 hours at 30° C. The luminescence was calculated to determine the kinase activity using a Kinase Glo assay kit for MERTK and an ADP-Glo Kinase Assay kit for AXL following the manufacture's instructions (Promega Corp., Madison, Wisconsin).
(§2) A study was conducted to compare exemplary compounds of formula (I) in inhibiting TAM activities, including MERTK, AXL, and TYRO3. An enzymatic assay was used in the study. A purified Kinase (i.e., MERTK, AXL, or TYRO3) was incubated with a compound or DMSO (control) for around 15 minutes in an assay buffer (25 mM Tris pH 7.4, 10 mM MgCl2, 4 mM MnCl2, 2 mM DTT, 0.01% BSA, 0.02% TritonX-100, 0.01% Brij35 and 0.5 mM Na3VO4 for MERTK; 40 mM Tris pH 7.4, 20 mM MgCl2, 2 mM DTT, 0.01% BSA and 0.5 mM Na3VO4 for AXL; and 25 mM Tris pH 7.4, 10 mM MgCl2, 4 mM MnCl2, 2 mM DTT, 0.01% BSA and 0.5 mM Na3VO4 for TYRO3). […] The mixture was incubated for 3 hours at 30° C. The luminescence was calculated to determine the kinase activity using a Kinase Glo assay kit for MERTK and an ADP-Glo Kinase assay kit for AXL and TYRO3 following the manufacture's instructions (Promega). Inhibition rates and half maximal inhibitory concentration (IC50) values were calculated. High percentage inhibition rates and low IC50 values are indicatives of high potency of the test compound.

[2] = test system: MER/AXL; assay: Dual MER/AXL inhibition (enzymatic); conditions: class for both MER and AXL
Description: as §1

[3] = target: T2, AXL (Homo sapiens, UniProt P30530); assay: AXL enzymatic assay (ADP-Glo); conditions: purified kinase, ATP 50 μM, read-out: AXL Enzymatic Inhibition (%)
T2 sequence (P30530 26-894): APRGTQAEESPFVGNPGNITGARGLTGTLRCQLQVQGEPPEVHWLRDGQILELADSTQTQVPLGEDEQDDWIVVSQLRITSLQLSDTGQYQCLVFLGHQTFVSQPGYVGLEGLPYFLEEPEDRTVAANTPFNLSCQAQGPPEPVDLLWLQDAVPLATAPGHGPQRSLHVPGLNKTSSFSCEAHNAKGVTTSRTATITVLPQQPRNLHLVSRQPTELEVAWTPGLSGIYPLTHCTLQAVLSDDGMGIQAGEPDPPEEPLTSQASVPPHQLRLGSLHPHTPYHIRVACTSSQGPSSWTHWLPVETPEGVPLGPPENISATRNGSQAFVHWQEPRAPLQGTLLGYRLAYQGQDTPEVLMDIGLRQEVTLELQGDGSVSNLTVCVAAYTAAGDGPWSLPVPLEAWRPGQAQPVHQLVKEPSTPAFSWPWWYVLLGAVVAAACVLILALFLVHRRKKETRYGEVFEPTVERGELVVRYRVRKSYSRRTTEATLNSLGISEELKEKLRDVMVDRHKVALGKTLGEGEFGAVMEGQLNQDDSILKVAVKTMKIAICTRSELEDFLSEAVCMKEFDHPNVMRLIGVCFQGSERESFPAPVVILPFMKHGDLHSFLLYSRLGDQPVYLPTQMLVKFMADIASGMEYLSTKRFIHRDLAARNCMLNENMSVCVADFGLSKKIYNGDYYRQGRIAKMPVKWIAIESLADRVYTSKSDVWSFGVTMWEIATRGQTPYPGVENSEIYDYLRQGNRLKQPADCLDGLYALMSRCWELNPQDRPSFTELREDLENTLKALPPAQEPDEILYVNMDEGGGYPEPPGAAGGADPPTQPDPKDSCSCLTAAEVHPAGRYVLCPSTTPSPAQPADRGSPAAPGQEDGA
Description: as §1, §2

Cn1cc(-c2oc3ncnc(Oc4ccc(NC(=O)c5cccn(-c6ccc(F)cc6)c5=O)cc4)c3c2-c2cccc(N3CCCCC3=O)c2)cn1 [Compound 175]
IC50 [1]: 0.1 to 50 µM | IC50 [2]: 0.1 to 50 µM | IC50 [3]: 0.1 to 50 µM

Cn1cc(-c2oc3ncnc(Oc4ccc(NC(=O)c5cccn(-c6cccc(F)c6)c5=O)cc4)c3c2-c2cccc(N)c2)cn1 [Compound 55]
IC50 [1]: 0.02 to 0.1 µM | IC50 [2]: 0.02 to 0.1 µM | IC50 [3]: < 0.02 µM

Cn1cc(-c2oc3ncnc(Oc4ccc(NC(=O)c5cccn(-c6ccc(F)c(F)c6)c5=O)cc4)c3c2-c2cccc(N)c2)cn1 [Compound 94]
IC50 [1]: 0.02 to 0.1 µM | IC50 [2]: 0.02 to 0.1 µM | IC50 [3]: < 0.02 µM

CC(=O)Nc1cccc(-c2c(-c3cnn(C)c3)oc3ncnc(Oc4ccc(NC(=O)c5ccc(-c6cccc(F)c6)o5)cc4)c23)c1 [Compound 120]
IC50 [1]: 0.1 to 50 µM | IC50 [2]: 0.1 to 50 µM | IC50 [3]: 0.1 to 50 µM

CC(=O)Nc1cccc(-c2c(-c3cnn(C)c3)oc3ncnc(Oc4ccc(NC(=O)c5cc6c(n(-c7ccccc7)c5=O)CCCC6=O)cc4)c23)c1 [Compound 62]
IC50 [1]: 0.1 to 50 µM | IC50 [2]: 0.1 to 50 µM | IC50 [3]: < 0.02 µM

Cn1cc(-c2oc3ncnc(Oc4ccc(NC(=O)c5cn(C)n(-c6ccc(F)cc6)c5=O)cc4)c3c2-c2ccccc2N)cn1 [Compound 141]
IC50 [1]: 0.1 to 50 µM | IC50 [2]: 0.1 to 50 µM | IC50 [3]: 0.1 to 50 µM

CC(=O)Nc1cccc(-c2c(-c3cnn(C)c3)oc3ncnc(Oc4ccc(NC(=O)c5cc(-c6ccc(F)cc6)on5)cc4)c23)c1 [Compound 116]
IC50 [1]: 0.1 to 50 µM | IC50 [2]: 0.1 to 50 µM | IC50 [3]: 0.1 to 50 µM

CN(C)Cc1cccc(-c2c(-c3cnn(C)c3)oc3ncnc(Oc4ccc(NC(=O)c5cccn(-c6ccc(F)c(F)c6)c5=O)cc4)c23)c1 [Compound 95]
IC50 [1]: < 0.02 µM | IC50 [2]: < 0.02 µM | IC50 [3]: < 0.02 µM

Cn1cc(-c2oc3ncnc(Oc4ccc(NC(=O)c5cccn(C6CCCCC6)c5=O)cc4)c3c2-c2cccc(N)c2)cn1 [Compound 83]
IC50 [1]: 0.1 to 50 µM | IC50 [2]: 0.1 to 50 µM | IC50 [3]: 0.1 to 50 µM

CC(=O)Nc1cccc(-c2c(-c3cnn(C)c3)oc3ncnc(Oc4ccc(NC(=O)c5cccn(-c6ccc(F)nc6)c5=O)cc4)c23)c1 [Compound 81]
IC50 [1]: 0.1 to 50 µM | IC50 [2]: 0.1 to 50 µM | IC50 [3]: 0.1 to 50 µM

CC(=O)Nc1cccc(-c2c(-c3cnn(C)c3)oc3ncnc(Oc4ccc(NC(=O)c5c(C)n(C)n(-c6ccc(F)cc6)c5=O)cc4)c23)c1 [Compound 122]
IC50 [1]: 0.1 to 50 µM | IC50 [2]: 0.1 to 50 µM | IC50 [3]: < 0.02 µM

O=C(Nc1ccc(Nc2ncnc3[nH]cc(C#Cc4ccccc4)c23)cc1)c1cccn(-c2ccc(F)cc2)c1=O [Compound 13]
IC50 [1]: 0.1 to 50 µM | IC50 [2]: 0.1 to 50 µM | IC50 [3]: 0.1 to 50 µM

CN(C)Cc1cccc(-c2c(-c3cnn(C)c3)oc3ncnc(Oc4ccc(NC(=O)c5cccn(C6CCCCC6)c5=O)cc4)c23)c1 [Compound 84]
IC50 [1]: 0.1 to 50 µM | IC50 [2]: 0.1 to 50 µM | IC50 [3]: 0.1 to 50 µM

O=C(Nc1ccc(Oc2ncnc3[nH]cc(-c4ccccc4)c23)cc1)c1cccn(-c2ccc(F)cc2)c1=O [Compound 8]
IC50 [1]: 0.02 to 0.1 µM | IC50 [2]: 0.1 to 50 µM | IC50 [3]: 0.1 to 50 µM

CCOc1ccn(-c2ccc(F)cc2)c(=O)c1C(=O)Nc1ccc(Oc2ncnc3[nH]cc(-c4cccc(NC(C)=O)c4)c23)cc1 [Compound 2]
IC50 [1]: 0.02 to 0.1 µM | IC50 [2]: 0.02 to 0.1 µM | IC50 [3]: < 0.02 µM

CN(C)Cc1cccc(-c2c(-c3cnn(C)c3)oc3ncnc(Oc4ccc(NC(=O)c5cccn(-c6ccc(F)c(Cl)c6)c5=O)cc4)c23)c1 [Compound 97]
IC50 [1]: 0.02 to 0.1 µM | IC50 [3]: < 0.02 µM

COc1nn(-c2ccc(C)cc2)cc1C(=O)Nc1ccc(Oc2ncnc3oc(-c4cnn(C)c4)c(-c4cccc(CN(C)C)c4)c23)cc1 [Compound 138]
IC50 [1]: 0.1 to 50 µM | IC50 [2]: 0.1 to 50 µM | IC50 [3]: 0.1 to 50 µM

CC(=O)Nc1cccc(-c2c(-c3cnn(C)c3)oc3ncnc(Oc4ccc(NC(=O)c5ccc(-c6ccc(F)cc6)o5)cc4)c23)c1 [Compound 118]
IC50 [1]: 0.1 to 50 µM | IC50 [2]: 0.1 to 50 µM | IC50 [3]: 0.1 to 50 µM

CN(C)Cc1cccc(-c2n[nH]c3ncnc(Oc4ccc(NC(=O)c5cn(C)n(-c6ccc(F)cc6)c5=O)cc4)c23)c1 [Compound 139]
IC50 [1]: 0.1 to 50 µM | IC50 [2]: 0.1 to 50 µM | IC50 [3]: 0.1 to 50 µM

Cn1cc(-c2oc3ncnc(Oc4ccc(NC(=O)c5cccn(-c6ccc(F)cc6)c5=O)cc4)c3c2-c2cccc(N3CCNCC3)c2)cn1 [Compound 33]
IC50 [1]: < 0.02 µM | IC50 [2]: < 0.02 µM | IC50 [3]: < 0.02 µM

Cn1cc(-c2oc3ncnc(Oc4ccc(NC(=O)c5cccn(-c6ccc(F)cc6F)c5=O)cc4)c3c2-c2cccc(N)c2)cn1 [Compound 92]
IC50 [1]: 0.02 to 0.1 µM | IC50 [2]: 0.02 to 0.1 µM | IC50 [3]: < 0.02 µM

CCNc1cccc(-c2c(-c3cnn(C)c3)oc3ncnc(Oc4ccc(NC(=O)c5cccn(-c6ccc(F)cc6)c5=O)cc4)c23)c1 [Compound 177]
IC50 [1]: 0.1 to 50 µM | IC50 [2]: 0.1 to 50 µM | IC50 [3]: 0.1 to 50 µM

O=C(Nc1ccc(Oc2ncnc3[nH]cc(-c4ccccn4)c23)cc1)c1cccn(-c2ccc(F)cc2)c1=O [Compound 17]
IC50 [1]: 0.1 to 50 µM | IC50 [2]: 0.1 to 50 µM | IC50 [3]: < 0.02 µM

CC(=O)Nc1cccc(-c2c(-c3cnn(C)c3)oc3ncnc(Oc4ccc(NC(=O)c5cccn(C)c5=O)cc4)c23)c1 [Compound 75]
IC50 [1]: 0.1 to 50 µM | IC50 [2]: 0.1 to 50 µM | IC50 [3]: 0.1 to 50 µM

Cc1cc(F)ccc1-n1cccc(C(=O)Nc2ccc(Oc3ncnc4oc(-c5cnn(C)c5)c(-c5cccc(N)c5)c34)cc2)c1=O [Compound 73]
IC50 [1]: 0.02 to 0.1 µM | IC50 [2]: 0.02 to 0.1 µM | IC50 [3]: < 0.02 µM

CC(=O)Nc1cccc(-c2c(-c3cnn(C)c3)oc3ncnc(Oc4ccc(NC(=O)c5cc6c(n(-c7ccc(F)cc7)c5=O)CCCC6=O)cc4)c23)c1 [Compound 69]
IC50 [1]: 0.1 to 50 µM | IC50 [2]: 0.1 to 50 µM | IC50 [3]: < 0.02 µM

Source: patent US20260070911A1, “INHIBITORS OF TAM RECEPTORS” (National Health Research Institutes, priority 2022, published 2026)
